The values below come from patent US9896445B2, “Heterocyclic inhibitors of ERK1 and ERK2 and their use in the treatment of cancer” (Asana Biosciences, LLC, priority 2015, dated 2018).

The target of one assay is T1, ERK1 (Homo sapiens, UniProt P27361).
T1 construct: purchased Jubilant Biosys
Briefly: ERK1 HTRF (biochemical) assay. The following applies: HTRF. How it is done:
ERK1 and ERK2 HTRF (Biochemical) Assays
These assays employed a homogeneous time resolved fluorescence (HTRF) technique. […] The plate was incubated at room temperature for 60 min with shaking. […] The IC50 values (half maximal inhibitory concentration values) were subsequently determined using a sigmoidal dose-response curve (variable slope) in GraphPad Prism® 5 software.

A further assay deals with T2, ERK2 (Homo sapiens, UniProt P28482).
T2 construct: purchased Jubilant Biosys
Briefly: ERK2 HTRF (biochemical) assay. Conditions: HTRF. The procedure, abridged:
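Compounds were tested as half-log dilutions from 0.0005 to 10 uM in Tris pH 7.5/MgCl2 buffer, with a substrate mix of 1 uM biotin-MBP peptide and 24 uM ATP and an enzyme mix of 25 nM ERK2. Reaction ran 60 min at room temperature. Phospho-MBP was detected by HTRF (Eu-anti-phospho-MBP/SA-APC, 665/620 nm), and IC50 was fitted with a variable-slope sigmoidal curve.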

Molecules are shown by their SMILES.

T1 sequence (P27361 whole entry): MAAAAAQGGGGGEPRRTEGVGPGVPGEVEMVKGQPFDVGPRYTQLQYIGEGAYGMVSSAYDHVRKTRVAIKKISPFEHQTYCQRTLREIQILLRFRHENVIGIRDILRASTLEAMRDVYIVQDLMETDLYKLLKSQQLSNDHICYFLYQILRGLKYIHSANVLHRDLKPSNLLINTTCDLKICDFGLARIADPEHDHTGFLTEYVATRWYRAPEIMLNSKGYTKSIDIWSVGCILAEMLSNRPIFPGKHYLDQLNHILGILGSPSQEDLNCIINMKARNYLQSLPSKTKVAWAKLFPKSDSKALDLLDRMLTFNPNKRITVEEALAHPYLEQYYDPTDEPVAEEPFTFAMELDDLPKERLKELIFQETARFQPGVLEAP
T2 sequence (P28482 whole entry): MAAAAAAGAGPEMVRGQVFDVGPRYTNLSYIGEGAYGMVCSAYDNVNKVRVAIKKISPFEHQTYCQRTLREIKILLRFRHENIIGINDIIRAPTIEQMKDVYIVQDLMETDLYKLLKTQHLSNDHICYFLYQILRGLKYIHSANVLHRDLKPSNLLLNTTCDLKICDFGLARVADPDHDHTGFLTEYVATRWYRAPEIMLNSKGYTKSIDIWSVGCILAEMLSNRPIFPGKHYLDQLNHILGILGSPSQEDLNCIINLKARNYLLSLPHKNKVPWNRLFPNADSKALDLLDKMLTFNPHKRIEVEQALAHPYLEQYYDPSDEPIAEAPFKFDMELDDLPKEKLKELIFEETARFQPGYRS

Consider `Cc1cnc(Nc2ccc(F)c(N3CCOCC3)c2)nc1-n1cnc(C(=O)NC(CN)c2cccc(Cl)c2)c1` (stereo not shown) [Example 256, N-(2-amino-1-(3-chlorophenyl)ethyl)-1-(2-((4-fluoro-3-morpholinophenyl)amino)-5-methyl-pyrimidin-4-yl)-1H-imidazole-4-carboxamide], for which the IC50 on ERK1 is less than 50 nM; at ERK2, not above 50 nM.

`Cc1cnc(NC2CCOCC2)nc1-n1cnc(C(=O)NC(CO)c2ccc(Cl)s2)c1` (stereo not shown) [Example 257, N-(1-(5-chlorothiophen-2-yl)-2-hydroxy-ethyl)-1-(5-methyl-2-((tetrahydro-2H-pyran-4-yl)amino)-pyrimidin-4-yl)-1H-imidazole-4-carboxamide]: the values for the IC50 against ERK1 and on ERK2 were less than 50 nM and not above 50 nM, respectively.

Regarding `Cc1cnc(NC2CCOCC2)nc1-n1cnc(C(=O)NC(CO)c2cccc(C(C)(C)C)c2)c1` (stereo not shown) [Example 258, N-(1-(3-(tert-butyl)phenyl)-2-hydroxyethyl)-1-(5-methyl-2-((tetrahydro-2H-pyran-4-yl)amino)-pyrimidin-4-yl)-1H-imidazole-4-carboxamide], the IC50 at ERK1 was less than 50 nM; against ERK2, not above 50 nM.

As to `Cc1cnc(NC(CO)CO)nc1-n1cnc(C(=O)N[C@H](CO)c2cccc(Cl)c2)c1` [Example 260, (S)-N-(1-(3-chlorophenyl)-2-hydroxyethyl)-1-(2-((1,3-dihydroxy-propan-2-yl)amino)-5-methylpyrimidin-4-yl)-1H-imidazole-4-carboxamide], the results for the IC50 on ERK1 and against ERK2 were less than 50 nM and not above 50 nM, respectively.

`Cc1ccc(C(CO)NC(=O)c2cn(-c3nc(NC4CCOCC4)ncc3C)cn2)s1` (stereo not shown) [Example 261, N-(2-hydroxy-1-(5-methylthiophen-2-yl)ethyl)-1-(5-methyl-2-((tetrahydro-2H-pyran-4-yl)amino)-pyrimidin-4-yl)-1H-imidazole-4-carboxamide]: the half-maximal inhibitory concentration (IC50) against ERK1 is less than 50 nM; against ERK2, not above 50 nM.

`Cc1cnc(Nc2ccc(F)cc2)nc1-n1cnc(C(=O)NCc2cccc(Cl)c2CO)c1` [Example 262, N-(3-chloro-2-(hydroxymethyl)benzyl)-1-(2-((4-fluorophenyl)-amino)-5-methyl-pyrimidin-4-yl)-1H-imidazole-4-carbox amide]: the IC50 was less than 50 nM against ERK1 and not above 50 nM on ERK2.

With `Cc1cnc(N[C@@H]2CCOC2)nc1-n1cnc(C(=O)N[C@H](CN)c2cccc(Cl)c2)c1` [Example 264, N-((S)-2-amino-1-(3-chlorophenyl)-ethyl)-1-(5-methyl-2-(((R)-tetrahydrofuran-3-yl)amino)pyrimidin-4-yl)-1H-imidazole-4-carboxamide], the IC50 against ERK1 was less than 50 nM; against ERK2, not above 50 nM.

Take `Cc1cnc(N[C@@H]2CCOC2)nc1-n1cnc(C(=O)N[C@H](CO)c2cccc(Cl)c2)c1` [Example 265, N-((S)-1-(3-chlorophenyl)-2-hydroxyethyl)-1-(5-methyl-2-(((R)-tetrahydrofuran-3-yl)amino)pyrimidin-4-yl)-1H-imidazole-4-carboxamide]: the IC50 is less than 50 nM against ERK1 and not above 50 nM on ERK2.

`Cc1cnc(Nc2ccc3c(c2)OCO3)nc1-n1cnc(C(=O)N[C@H](CN)c2cccc(Cl)c2)c1` [Example 266, (S)-N-(2-amino-1-(3-chlorophenyl)-ethyl)-1-(2-(benzo[d][1,3]dioxol-5-ylamino)-5-methylpyrimidin-4-yl)-1H-imidazole-4-carboxamide]: the IC50 was less than 50 nM against ERK1 and not above 50 nM on ERK2.

For `Cc1cnc(NC2CCOCC2)nc1-n1cnc(C(=O)NC(CN)c2cccs2)c1` (stereo not shown) [Example 267, N-(2-amino-1-(thiophen-2-yl)ethyl)-1-(5-methyl-2-((tetrahydro-2H-pyran-4-yl)amino)-pyrimidin-4-yl)-1H-imidazole-4-carboxamide], the IC50 at ERK1 is less than 50 nM; against ERK2 it was not above 50 nM.

For `Cc1cnc(NC2COC2)nc1-n1cnc(C(=O)N[C@H](CN)c2cccc(Cl)c2)c1` [Example 268, (S)-N-(2-amino-1-(3-chlorophenyl)-ethyl)-1-(5-methyl-2-(oxetan-3-ylamino)pyrimidin-4-yl)-1H-imidazole-4-carboxamide], the IC50 is less than 50 nM against ERK1 and not above 50 nM on ERK2.

As for `Cc1cnc(Nc2ccc3c(c2)OCO3)nc1-n1cnc(C(=O)NC(CN)c2cc(F)cc(Cl)c2)c1` (stereo not shown) [Example 269, N-(2-amino-1-(3-chloro-5-fluorophenyl)ethyl)-1-(2-(benzo[d][1,3]dioxol-5-ylamino)-5-methylpyrimidin-4-yl)-1H-imidazole-4-carboxamide], the IC50 on ERK1 is less than 50 nM; against ERK2, not above 50 nM.

As to `Cc1cnc(N[C@H]2CCOC2)nc1-n1cnc(C(=O)NCc2cccc(Cl)c2CO)c1` [Example 270], the figures for the IC50 against ERK1 and on ERK2 were less than 50 nM and not above 50 nM, respectively.

`Cc1cnc(NC2CCOc3ccccc32)nc1-n1cnc(C(=O)N[C@H](CN)c2cccc(Cl)c2)c1` (stereo partly drawn) [Example 271, N-((S)-2-amino-1-(3-chlorophenyl)ethyl)-1-(2-(chroman-4-ylamino)-5-methylpyrimidin-4-yl)-1H-imidazole-4-carboxamide]: the figures for the IC50 at ERK1 and at ERK2 were less than 50 nM and not above 50 nM, respectively.

In the case of `Cc1cnc(Nc2cccc(N3CCOCC3)c2)nc1-n1cnc(C(=O)N[C@H](CN)c2cccc(Cl)c2)c1` [Example 272, (S)-N-(2-amino-1-(3-chlorophenyl)ethyl)-1-(5-methyl-2-((3-morpholino-phenyl)amino)pyrimidin-4-yl)-1H-imidazole-4-carboxamide], the IC50 against ERK1 was less than 50 nM; against ERK2, not above 50 nM.

As to `Cc1cnc(NC2CC(F)(F)C2)nc1-n1cnc(C(=O)NCc2cccc(Cl)c2CO)c1` [Example 273, N-(3-chloro-2-(hydroxymethyl)benzyl)-1-(2-((3,3-difluorocyclobutyl)amino)-5-methyl-pyrimidin-4-yl)-1H-imidazole-4-carboxamide], the IC50 at ERK1 is less than 50 nM; on ERK2 it was not above 50 nM.

`Cc1cnc(NC2CCOCC2)nc1-n1cnc(C(=O)NC(CN)c2ccc(Cl)s2)c1` (stereo not shown) [Example 274, N-(2-amino-1-(5-chlorothiophen-2-yl)ethyl)-1-(5-methyl-2-((tetrahydro-2H-pyran-4-yl)amino)-pyrimidin-4-yl)-1H-imidazole-4-carboxamide]: the figures for the IC50 against ERK1 and on ERK2 were less than 50 nM and not above 50 nM, respectively.

Take `Cc1cnc(NC2CCOCC2)nc1-n1cnc(C(=O)N[C@@H](CN)c2cc(F)cc(Cl)c2)c1` [Example 276, (R)-N-(2-amino-1-(3-chloro-5-fluoro-phenyl)ethyl)-1-(5-methyl-2-((tetrahydro-2H-pyran-4-yl)amino)-pyrimidin-4-yl)-1H-imidazole-4-carboxamide]: the IC50 at ERK1 was less than 50 nM; on ERK2, not above 50 nM.

In the case of `Cc1cnc(Nc2ccnn2C)nc1-n1cnc(C(=O)N[C@H](CO)c2cccc(Cl)c2)c1` [Example 277, (S)-N-(1-(3-chlorophenyl)-2-hydroxyethyl)-1-(5-methyl-2-((1-methyl-1H-pyrazol-5-yl)amino)-pyrimidin-4-yl)-1H-imidazole-4-carboxamide], the IC50 on ERK1 was less than 50 nM; against ERK2, not above 50 nM.

As to `Cc1cnc(NC2CC(F)(F)C2)nc1-n1cnc(C(=O)NC(CN)c2cc(F)cc(Cl)c2)c1` (stereo not shown) [Example 278, N-(2-amino-1-(3-chloro-5-fluoro-phenyl)ethyl)-1-(2-((3,3-difluoro-cyclobutyl)amino)-5-methylpyrimidin-4-yl)-1H-imidazole-4-carboxamide], the IC50 against ERK1 is less than 50 nM; on ERK2, not above 50 nM.

In the case of `Cc1cnc(Nc2ccnn2C)nc1-n1cnc(C(=O)N[C@H](CN)c2cccc(Cl)c2)c1` [Example 280, (S)-N-(2-amino-1-(3-chlorophenyl)-ethyl)-1-(5-methyl-2-((1-methyl-1H-pyrazol-5-yl)amino)-pyrimidin-4-yl)-1H-imidazole-4-carboxamide], the IC50 was less than 50 nM on ERK1 and not above 50 nM against ERK2.

As to `Cc1cnc(NC2CCOCC2)nc1-n1cnc(C(=O)NCc2nccs2)c1` [Example 281, 1-(5-methyl-2-((tetrahydro-2H-pyran-4-yl)amino)-pyrimidin-4-yl)-N-(thiazol-2-ylmethyl)-1H-imidazole-4-carboxamide], the figures for the IC50 against ERK1 and against ERK2 were less than 50 nM and not above 50 nM, respectively.

As for `Cc1cnc(NC2CCOCC2)nc1-n1cnc(C(=O)NCc2ccccc2CN)c1` [Example 283, N-(2-(amino-methyl)benzyl)-1-(5-methyl-2-((tetrahydro-2H-pyran-4-yl)amino)-pyrimidin-4-yl)-1H-imidazole-4-carbox amide], the concentration for half-maximal inhibition (IC50) against ERK1 was less than 50 nM; against ERK2, not above 50 nM.

Regarding `Cc1cnc(NC2CCOCC2)nc1-n1cnc(C(=O)NCc2sccc2CO)c1` [Example 284, N-((3-(hydroxy-methyl)thiophen-2-yl)methyl)-1-(5-methyl-2-((tetrahydro-2H-pyran-4-yl)amino)-pyrimidin-4-yl)-1H-imidazole-4-carboxamide], the IC50 on ERK1 was less than 50 nM; against ERK2, not above 50 nM.

Regarding `Cc1cnc(NC2CCOCC2)nc1-n1cnc(C(=O)NCc2cccc(Cl)c2CN)c1` [Example 285, N-(2-(aminomethyl)-3-chlorobenzyl)-1-(5-methyl-2-((tetrahydro-2H-pyran-4-yl)amino)-pyrimidin-4-yl)-1H-imidazole-4-carboxamide], the figures for the IC50 against ERK1 and on ERK2 were less than 50 nM and not above 50 nM, respectively.

With `Cc1cnc(NC2CCC(F)(F)CC2)nc1-n1cnc(C(=O)N[C@H](CN)c2cccc(Cl)c2)c1` [Example 286, (S)-N-(2-amino-1-(3-chlorophenyl)-ethyl)-1-(2-((4,4-difluorocyclo-hexyl)amino)-5-methylpyrmidin-4-yl)-1H-imidazole-4-carboxamide], the results for the IC50 against ERK1 and against ERK2 were less than 50 nM and not above 50 nM, respectively.
